Results: PubChem BioAssay AID179 (DTP/NCI, 2004)
Several values for one entry are separate records, joined by “and”; a condition that tells them apart may be missing. Equal entries are not always repeated. Activity calls are given as the source filed them.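 The calls were made as follows: active = compounds giving half or more protection of infected cells from virus-caused growth loss, again on retest; inactive = the rest.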 *1 amine or outer side, *2 acyl side, *3 side chain or, on linkers, in order; H or OH if unused. Where a SMILES comes first, the peptide text is derived from it. Bridges are numbered along the chain shown (N, C = ends). [ ]: non-standard residue; d: D form. The star is where a group is joined. Fmoc = O=C(OCC1c2ccccc2-c2ccccc21)*; X2 = O=C(C(CCCCNO[*:3])N[*:1])[*:2]

Tested on: CEM cells HIV-1 protection, formazan growth assay
Assay: NCI AIDS Antiviral Assay
Conditions: for IC50: measured here: growth of uninfected CEM cells
In short: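 Soluble formazan readout of cell growth; CEM cells ± HIV-1; 5 drug concs. ≥50% protection → retest; ≥50% again = moderately active; reproducible 100% = confirmed active.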

Row | SMILES | EC50 [µM] | IC50 | outcome
1 | COc1ccc(C2Oc3cc(OC)c(O)cc3[C@@H]2C)cc1 (stereo partly specified) | > 66.1 | 6.46 µM | 
2 | Cc1nc2nnc(CCCCCCCCc3nnc4nc(C)[nH]n34)n2[nH]1 | 135 | 174 µM | 
3 | COC(=O)C1(Cc2ccccc2)Cc2ccccc2C1=O (stereo unspecified) | > 200 | 85.1 µM | 
4 | O=S(=O)(O)C(O)CC(O)S(=O)(=O)O (stereo unspecified) | > 200 | 102 µM | 
5 | COC(=O)C(=O)C(C(=O)C=C(C)C)C(=O)C(=O)Nc1cccc(C(C)=O)c1 (stereo unspecified) | > 251 |  | 
6 | Cc1cn(C2CC(N=[N+]=[N-])C(CO)O2)c(=O)[nH]c1=O (stereo unspecified) | 0.0148 | 0.316 µM | 
7 | Cc1ccc(N2CN(c3ccc(C)cc3)CC(C)(N)C2)cc1 | > 200 | 24 µM | 
8 | Cc1ccc(NC(=O)C(=O)C(C(=O)c2ccc3ccccc3c2)C2OC(=O)c3ccccc32)cc1C (stereo unspecified) | > 53.7 | 25.7 µM | 
9 | COC(=O)C1CCC(=O)N1CN(C(C)=O)c1cccc(O)c1 (stereo unspecified) | > 200 | > 200 µM | 
10 | Cn1c(=O)c(=O)n(C)c2cc(Cl)c(Cl)cc21 | > 200 | > 200 µM | 
11 | O=c1[nH]cnc2c1sc(=S)n2-c1ccccc1 | > 100 | 70.8 µM | 
12 | CC(=O)Oc1ccc2c(C)cc(=O)oc2c1OC(C)=O | > 200 | 69.2 µM | 
13 | CC(C)/C=N\n1c(N)c(C#N)c(C#N)c1C(C)C | > 200 | 63.1 µM | 
14 | COC(=O)c1ccccc1NC(=O)C(=O)CC(=O)c1ccccc1NC1=CC(=O)C(=O)c2ccccc21 | > 27.5 | 4.68 µM | 
15 | O=c1[nH]nc(-c2ccc([N+](=O)[O-])cc2)[nH]1 | > 200 | > 200 µM | 
16 | C=CCOC1OC(CS(=O)(=O)O)C(O)C(O)C1O (stereo unspecified) |  |  | inactive
17 | CN(C)NC1=NS(=O)(=O)c2cc3c(=O)n(C)[nH]c3cc2S1 | > 200 | 138 µM | 
18 | Cc1cc(Cl)ccc1N=C1NC(=O)C(CC(=O)Nc2cccc(C)c2C)S1 (stereo unspecified) | > 234 | 66.1 µM | 
19 | Cc1noc(NS(=O)(=O)c2ccc(NC(=O)c3ccccc3SC(=O)CCCC[n+]3ccccc3)cc2)c1C | 24 | 53.7 µM | 
20 | Cc1cccc(/C=N/NC(=S)NC2CCCCC2)n1 | > 200 | 10 µM | 
21 | CCOC(=O)CC(C)P(c1ccccc1)C(C)CC(=O)OCC (stereo unspecified) | > 741 | > 741 µM | 
22 | S=C(c1c[nH]c2ccccc12)N1CCOCC1 | > 200 | > 200 µM | 

Row | SMILES | EC50 [µM] | IC50 | outcome
23 | Cc1c(C)c2cc3ccoc3cc2oc1=O | > 83.2 | > 83.2 µM | 
24 | CN1CCN(Cc2nc3c(s2)CCc2sccc2-3)CC1 | > 200 | 57.5 µM | 
25 | O=C1OCC(Cc2ccc3c(c2)OCO3)[C@H]1Cc1ccccc1 (stereo partly specified) | > 200 | 186 µM | 
26 | CC1=NN(C(=O)CC(=O)N(C(=O)c2ccccc2)c2ccc(Cl)cc2)C(=O)C1N=Nc1ccc([N+](=O)[O-])cc1 (stereo unspecified) | 174 | > 200 µM | 
27 | Cc1ccc(S(=O)(=O)/C(C#N)=C/NC(=S)Nc2ccccc2)cc1 | 170 | > 200 µM | 
28 | CCCCCCCCCC(=O)CC(=O)c1c(O)cc(O)cc1O | > 200 | 26.3 µM | 
29 | CCC1(N=[N+]=[N-])C(=O)c2ccccc2N(C)C1=O (stereo unspecified) | > 200 | > 200 µM | 
30 | N#C/C(=C\NC(=S)Nc1ccc(S(N)(=O)=O)cc1)C(=O)c1ccc2ccccc2c1 | > 200 | 155 µM | 
31 | O=c1[nH]c2ccccc2c(=O)n1/N=C/c1ccc(Cl)cc1 | > 200 | > 200 µM | 
32 | Cc1cc(N=Nc2ccc(C(=O)Nc3ccc4cc(S(=O)(=O)O)ccc4c3)cc2)c(N)c(N=Nc2ccc(N=Nc3ccc(O)c(C(=O)O)c3)cc2)c1N | 14.8 | > 100 µM | 
33 | CC(=O)OC1[C@@H](OC(C)=O)[C@H](OC(C)=O)C2(CO2)[C@H](OC(C)=O)[C@H]1OC(C)=O (stereo partly specified) | > 200 | 12.3 µM | 
34 | CC1=NNC(=O)C1C1CC(c2c[nH]c3ccccc23)=NN/C1=N\N (stereo unspecified) | > 100 | > 100 µM | 
35 | O=C(O)C1CC1 |  |  | inactive
36 | FC(F)(F)c1cccnc1Sc1nc2ccccc2s1 | > 200 | 38 µM | 
37 | O=C(c1ccc([N+](=O)[O-])cc1)c1no[n+]([O-])c1C(=O)c1ccc([N+](=O)[O-])cc1 |  |  | inactive
38 | CCOC(=O)n1[nH][nH]c2c(c(=O)n(C)c(=O)n2C)n1C(=O)OCC | > 200 | > 200 µM | 
39 | COc1ccc2c(c1)CCC1C=NOC21 (stereo unspecified) | > 245 | 107 µM | 
40 | COc1ccc(/C=N\N2C(=O)Cc3ccccc32)cc1 | > 37.2 | > 37.2 µM | 
41 | CC(=O)N1N=C(c2ccc(N=Nc3c(C)nn(-c4ccccc4)c3C)cc2)OC1c1ccc(Cl)cc1 (stereo unspecified) | > 18.6 | > 18.6 µM | 
42 | CN(c1nc(=[N+](C)C)ss1)C1CCCCC1 |  |  | inactive
43 | CN(C)CC(=O)N1CC(COS(C)(=O)=O)c2ccc(O)cc21 (stereo unspecified) | > 20 | 3.47 µM | 
44 | O=c1[nH]nc(-c2ccccc2)n1/N=C/c1cccc([N+](=O)[O-])c1 | > 200 | 24.5 µM | 

Row | SMILES | EC50 [µM] | IC50 | outcome
45 | CCC1OC2CS(=O)(=O)CC2O1 (stereo unspecified) | > 1290 | > 1290 µM | 
46 | Cc1ccc(-n2[nH]nc(C(N)=O)c2=O)cc1 | > 200 | > 200 µM | 
47 | O=c1oc2ccccc2c(O)c1C(c1ccc2c(c1)Cc1ccccc1-2)c1c(O)c2ccccc2oc1=O | > 200 | 46.8 µM | 
48 | C/C(=N\O)c1ccc(S(=O)(=O)c2ccc([N+](=O)[O-])cc2)cc1 | > 200 | > 200 µM | 
49 | COc1ccc2c(c1)CCC1C[C@@H]3C[C@]21C=CC3=O (stereo partly specified) | > 182 | 49 µM and > 28.2 µM | 
50 | NC(=O)CNC(=O)C1CCCN1C(=O)C1CCCCNOC(=O)CCC(NC(=O)OCC2c3ccccc3-c3ccccc32)C(=O)NC(Cc2c[nH]c3ccccc23)C(=O)N1 (stereo unspecified) (Fmoc-EW[X2]PG-NH2; ester 1-3; configuration not given here) | 70.8 | > 100 µM | 
51 | O=[N+]([O-])C(C=C(n1nnc2ccccc21)n1nnc2ccccc21)=C(n1nnc2ccccc21)n1nnc2ccccc21 | > 200 | > 200 µM | 
52 | COC(=O)c1cc2nc(NC(C)=O)sc2n1C | > 200 | > 200 µM | 
53 | C1CSCCSCCCS[C@@H]2CCCCC2SC1 (stereo partly specified) | > 100 | > 100 µM | 
54 | Cc1nc(N)nc(N)c1N1CCN(c2ccc(C(=O)NC(CCC(=O)O)C(=O)O)cc2)CC1 (stereo unspecified) | > 200 | 0.0631 µM | 
55 | CCCCOP(=O)(/C=C\c1ccccn1)OCCCC | > 120 | > 120 µM | 
56 | COc1ccc(C(C#N)NNc2nc(C)cc(=O)[nH]2)cc1OC (stereo unspecified) | > 794 | 234 µM | 
57 | Cc1ccc(Oc2ccccc2N)cc1 |  |  | inactive
58 | O=C1c2ccccc2C(=O)N1/N=C\c1ccc(O)cc1 | > 135 | > 135 µM | 
59 | COc1ccc(CC(CO)NC(=O)OCc2ccccc2)cc1Oc1ccc(CC(CO)NC(=O)OCc2ccccc2)cc1 (stereo unspecified) | > 200 | 10 µM | 
60 | Fc1ccc(Oc2nc3ccccc3nc2-c2ccccc2)cc1 |  |  | inactive
61 | Cc1cc(N(CCC#N)CCC#N)ccc1/C=N/NC(=O)c1cc(Cl)ccc1O | > 200 | > 200 µM | 
62 | COc1ccc2ncc(COC(=O)NC3CCCCC3)c(COC(=O)NC3CCCCC3)c2c1 | > 174 | 40.7 µM | 
63 | O=C1c2c(/C=C/c3ccc(Cl)c(Cl)c3)nc3ccccc3c2C(=O)N1CCN1CCCCC1 | > 7.59 | > 7.59 µM | 
64 | Cn1cc([N+](=O)[O-])cc1C(=O)Nc1cc(C(=O)Nc2ccc(S(=O)(=O)O)c3cc(S(=O)(=O)O)ccc23)n(C)c1 | > 398 | 178 µM | 
65 | Cc1ccc(CC(Cc2ccc(C)cc2C(=O)O)C(=O)O)cc1 (stereo unspecified) | > 200 | > 200 µM | 
66 | COc1cc(O)c2c(=O)oc3cc(O)cc(C)c3c2c1 | > 34.7 | > 34.7 µM | 

Row | SMILES | EC50 [µM] | IC50 | outcome
67 | Cn1c2ccccc2c(=NNc2ccc(S(=O)(=O)N=C(N)N)cc2)c2ccccc21 | > 200 | 5.5 µM | 
68 | CN(O)C(=O)CCCC(=O)NCC(C)(C)CNC(=O)CCCC(=O)N(C)O | > 200 | > 200 µM | 
69 | CSC(=O)c1sc(SC)[n+](-c2ccccc2)c1O | > 200 | 10.2 µM | 
70 | Cc1ccc(S(=O)(=O)CC2CCCn3c2c(C#N)c2ccccc23)cc1 (stereo unspecified) | > 200 | > 200 µM | 
71 | COc1ccc(-c2oc3cc(-c4cc5oc(-c6ccc(OC)cc6)c(-c6ccc(OC)cc6)c5cc4OC)c(OC)cc3c2-c2ccc(OC)cc2)cc1 | > 200 | > 200 µM | 
72 | COc1ccc(C(=O)/C(=N/Nc2ccccc2)c2ccc(OC)cc2)cc1 |  |  | inactive
73 | O=C(CC1C(=O)c2ccccc2C1=C1C(=O)c2ccccc2C1=O)c1ccccc1 (stereo unspecified) | > 9.55 | 5.5 µM | 
74 | O=C(OCC(O)CO)c1c(Cl)c(Cl)c(Cl)c(Cl)c1-c1c2cc(I)c(=O)c(I)c-2oc2c(I)c(O)c(I)cc12 (stereo unspecified) | > 200 | 2.63 µM | 
75 | O=[N+]([O-])c1ccc2c(c1)c1nn2CCCCOc2nn(c3ccc([N+](=O)[O-])cc23)CCCCO1 | > 200 | > 200 µM | 
76 | Cc1ccc(N=NC2S/C(=C(\C#N)c3nc4ccccc4[nH]3)N(c3ccccc3)C2=O)cc1 (stereo unspecified) | > 2.24 | > 2.24 µM | 
77 | CC(C)(C)OC(=O)NC(Cc1ccc(OCc2ccccc2)cn1)C(=O)O (stereo unspecified) | > 200 | > 200 µM | 
78 | C(=N\Nc1nnc2c(n1)[nH]c1ccccc12)/c1cccnc1 | > 200 | > 200 µM | 
79 | C[C@@]12CCC[C@H]1[C@@H]1CC=C3C[C@@H](S)CC[C@]3(C)[C@H]1CC2 | > 200 | 66.1 µM | 
80 | COc1ccccc1/C=C/C(=O)O | > 525 | > 525 µM | 
81 | CC1=C(C#N)C(N)=C2C(C)=C(C#N)C(N)=C12 |  |  | inactive
82 | Cn1ncc2c(N(N)CCO)nc(-c3ccc([N+](=O)[O-])o3)nc21 | > 200 | 10.7 µM | 
83 | O=C(Nc1nc(=S)[nH][nH]1)C(=O)C(c1cnc2ccc([N+](=O)[O-])cc2n1)[N+](=O)[O-] (stereo unspecified) | > 447 | 79.4 µM | 
84 | O=C1[C@H]2ON(c3ccccc3)C(c3ccc(Cl)cc3)[C@H]2C(=O)N1c1ccc(Cc2ccc(N3C(=O)[C@@H]4ON(c5ccccc5)C(c5ccc(Cl)cc5)[C@@H]4C3=O)cc2)cc1 (stereo partly specified) | > 6.31 | > 6.31 µM | 
85 | CC1Cn2c(=O)[nH]c3cccc(c32)NC1=O (stereo unspecified) | > 200 | 44.7 µM | 
